Values of other authors, collected in article PMC12586580 (Nature Communications, 2025).

Row | Compound | affinity for Man (Pmt3 MIR domain) | affinity for Man (Pmt2 MIR domain) | Pmt4 substrate property (in words) (Pmt4)
1 | OC[C@H]1OC(O)[C@@H](O)[C@@H](O)[C@@H]1O (stereo partly drawn) [Man, mannose] | low mM affinity | low mM affinity | –
2 | Ccw5: yeast cell wall protein 5 (Ccw5) (ASKTSTNATSSSCATPSLKD) | – | – | good Pmt4 substrate
